Converted amounts (≈) assume the structure as drawn. The source made the active and inactive calls. No cut-off for these calls is given here.
How the values were obtained:
Escherichia coli [1] = assay: Antibacterial activity against Escherichia coli ATCC 25922 by alamar blue reagent based micro dilution broth assay; format: functional
Staphylococcus aureus [2] = assay: microbe, parasite or virus in culture; details: ATCC 43300, 18 h
Escherichia coli [3] = assay: Antibacterial activity against Escherichia coli harboring acrF gene deletion mutant by alamar blue reagent based micro dilution broth assay; format: functional, organism-based
Staphylococcus aureus [4] = assay: Bactericidal activity against Staphylococcus aureus ATCC 43300; format: functional, organism-based
Escherichia coli [5] = assay: Antibacterial activity against Escherichia coli harboring emrB gene deletion mutant by alamar blue reagent based micro dilution broth assay; format: functional, organism-based
Escherichia coli [6] = assay: Antibacterial activity against Escherichia coli JW0451 harboring AcrB gene deletion mutant by alamar blue reagent based micro dilution broth assay; format: functional, organism-based
HepG2 [7] = assay: Cytotoxicity against human HepG2 cells at 100 uM after 4 hrs by alamar blue assay; format: cell-based; details: hepg2, 4 h
Escherichia coli [8] = assay: Antibacterial activity against Escherichia coli NR698 harboring imp gene deletion mutant by alamar blue reagent based micro dilution broth assay; format: functional
[9] = Cytotoxicity against human MCF10A cells after 4 hrs by alamar blue assay; format: cell-based; details: MCF-10A
Escherichia coli [10] = assay: Antibacterial activity against Escherichia coli harboring macB gene deletion mutant by alamar blue reagent based micro dilution broth assay; format: functional, organism-based
[11] = Cytotoxicity against HDF at 100 uM after 4 hrs by alamar blue assay; details: human
Escherichia coli [12] = assay: microbe, parasite or virus in culture
[13] = Therapeutic index, ratio of IC50 for human MCF10 cells to MIC for Staphylococcus aureus ATCC 43300; format: cell-based; details: read-out: TI
[14] = Primary phase half life in mouse liver microsomes at 0.5 ug/ml in presence of NADPH by UPLC analysis; format: ADME; details: read-out: alphat1/2
HepG2 [15] = assay: Cytotoxicity against human HepG2 cells after 4 hrs by alamar blue assay; format: cell-based; details: HepG2, 4 h
[16] = Ratio of MIC for Escherichia coli ATCC 25922 to MIC for Escherichia coli NR698 harboring imp gene deletion mutant; format: functional
[17] = Therapeutic index, ratio of IC50 for human MCF10A cells to MIC for Staphylococcus aureus ATCC 43300; format: cell-based, MCF-10A; details: read-out: TI
[18] = Therapeutic index, ratio of IC50 for HDF to MIC for Staphylococcus aureus ATCC 43300; details: human, read-out: TI
Cytochrome P450 2D6 = Cytochrome P450 2D6 (Homo sapiens, UniProt P10635); assay: Inhibition of human CYP2D6 using AMMC as substrate assessed as reduction in 3-[-2-(N,Ndiethylamino)ethyl]-7-hydroxy-4-methylcoumarin hydrochloride metabolite formation incubated for 30 mins by high throughput assay; format: ADME; details: read-out: INH
Chain of Cytochrome P450 2D6 (P10635 whole entry): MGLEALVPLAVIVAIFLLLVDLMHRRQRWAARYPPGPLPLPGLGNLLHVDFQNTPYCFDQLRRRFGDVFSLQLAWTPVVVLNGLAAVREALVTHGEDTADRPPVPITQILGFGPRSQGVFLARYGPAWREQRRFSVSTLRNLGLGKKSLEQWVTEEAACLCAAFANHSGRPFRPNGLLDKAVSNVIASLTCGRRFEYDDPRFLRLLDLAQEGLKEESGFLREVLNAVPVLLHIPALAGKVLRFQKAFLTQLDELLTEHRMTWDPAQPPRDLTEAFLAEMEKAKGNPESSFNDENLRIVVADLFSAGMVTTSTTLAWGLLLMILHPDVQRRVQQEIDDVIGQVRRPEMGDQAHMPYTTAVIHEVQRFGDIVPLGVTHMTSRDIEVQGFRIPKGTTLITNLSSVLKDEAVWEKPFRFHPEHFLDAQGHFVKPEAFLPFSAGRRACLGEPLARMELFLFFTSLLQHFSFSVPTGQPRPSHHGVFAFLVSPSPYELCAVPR

[19] = Cytotoxicity against HDF after 4 hrs by alamar blue assay; details: Homo sapiens
[20] = Therapeutic index, ratio of IC50 for human HepG2 cells to MIC for Staphylococcus aureus ATCC 43300; format: cell-based; details: read-out: TI
Cytochrome P450 3A4 = Cytochrome P450 3A4 (Homo sapiens, UniProt P08684); assay: Inhibition of human CYP3A4 using BQ as substrate assessed as reduction in 7-hydroxyquinoline metabolite formation incubated for 30 mins by high throughput assay; format: ADME; details: read-out: INH
Chain of Cytochrome P450 3A4 (P08684 whole entry): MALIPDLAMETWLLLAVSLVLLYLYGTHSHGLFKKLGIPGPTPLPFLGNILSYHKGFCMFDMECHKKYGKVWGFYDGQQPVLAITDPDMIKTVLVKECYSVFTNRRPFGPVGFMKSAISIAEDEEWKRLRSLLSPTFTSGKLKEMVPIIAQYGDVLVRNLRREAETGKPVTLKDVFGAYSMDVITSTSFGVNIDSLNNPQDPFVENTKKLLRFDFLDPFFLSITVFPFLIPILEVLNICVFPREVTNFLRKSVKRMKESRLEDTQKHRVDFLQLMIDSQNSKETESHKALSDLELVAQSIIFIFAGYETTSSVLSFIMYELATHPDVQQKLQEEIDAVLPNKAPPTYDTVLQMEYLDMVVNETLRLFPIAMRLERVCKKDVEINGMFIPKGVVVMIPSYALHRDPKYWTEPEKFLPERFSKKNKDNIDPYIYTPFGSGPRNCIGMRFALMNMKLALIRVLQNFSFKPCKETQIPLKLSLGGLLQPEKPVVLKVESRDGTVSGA

[21] = Terminal half life in mouse liver microsomes at 0.5 ug/ml in presence of NADPH by UPLC analysis; format: ADME; details: read-out: beta t1/2
Escherichia coli [22] = assay: Antibacterial activity against Escherichia coli harboring ompF gene deletion mutant by alamar blue reagent based micro dilution broth assay; format: functional
Escherichia coli [23] = assay: Antibacterial activity against Escherichia coli harboring efflux pump deletion mutant after 8 hrs; format: functional
Staphylococcus aureus [24] = assay: Antibacterial activity against methicillin-resistant Staphylococcus aureus by agar dilution method; format: functional
Escherichia coli [25] = assay: Antibacterial activity against Escherichia coli harboring ompC gene deletion mutant by alamar blue reagent based micro dilution broth assay; format: functional
Escherichia coli [26] = assay: Antibacterial activity against Escherichia coli W4573 after 8 hrs; format: functional; details: W4573, 8 h

| Compound | MIC (Escherichia coli [1]) [µg/mL] | MIC (Staphylococcus aureus [2]) [µg/mL] | Activity (Escherichia coli [3]) | Activity (Staphylococcus aureus [4]) | Activity (Escherichia coli [5]) | Activity (Escherichia coli [6]) | Activity (HepG2 [7]) | MIC (Escherichia coli [8]) [µg/mL] | IC50 [9] [µM] | Activity (Escherichia coli [10]) | Activity [11] | Ratio [16] | further results |
| --- | --- | --- | --- | --- | --- | --- | --- | --- | --- | --- | --- | --- | --- |
| CCc1nc(N)nc(N)c1C#C[C@H](C)c1cc(OC)cc(-c2ccc(C(=O)O)cc2)c1 | 10 (≈ 24 µM) | 0.0098 (≈ 0.0235 µM) | Active | Active | Active | Active | Non-toxic | 0.0024 (≈ 0.00576 µM) | > 100 | Active | Non-toxic | – | – |
| COc1cc(Cc2cnc(N)nc2N)cc(OC)c1OC [TRIMETHOPRIM] | 0.312 (≈ 1.08 µM) | – | – | – | – | – | – | 0.0098 (≈ 0.0338 µM) | – | – | – | – | MIC (Escherichia coli [12]): 0.312 µg/mL (≈ 1.08 µM) |
| CCc1nc(N)nc(N)c1C#CCc1cc(-c2ccc(C(=O)O)cc2)ccc1OC | > 20 | 0.0195 (≈ 0.0485 µM) | Active | – | Active | Active | – | 0.0098 (≈ 0.0244 µM) | > 100 | Active | – | 2000 | selectivity ratio [13]: > 500000; half-life at 0.5 ug/ml [14]: 1.65 h; IC50 (HepG2 [15]): > 500 µM; selectivity ratio [17]: > 500000; selectivity ratio [18]: > 500000; IC50 (Cytochrome P450 2D6): > 50 µM; IC50 [19]: > 500 µM; selectivity ratio [20]: > 500000; IC50 (Cytochrome P450 3A4): > 50 µM; half-life at 0.5 ug/ml [21]: 1.45 h |
| CC(=O)O.CCc1nc(N)nc(N)c1C#C[C@@H](C)c1cc(-c2ccc(C(=O)O)cc2)ccc1OC | 20 | 0.0195 | Active | – | Active | Active | Non-toxic | 0.0012 | > 100 | Active | Non-toxic | – | – |
| CN(Cc1cnc2nc(N)nc(N)c2n1)c1ccc(C(=O)N[C@@H](CCC(=O)O)C(=O)O)cc1 [METHOTREXATE] | > 40 | > 40 | – | – | – | – | – | 40 (≈ 88 µM) | – | – | – | – | MIC (Escherichia coli [22]): ≥ 40 µg/mL; MIC (Escherichia coli [23]): 64 µM (≈ 29.1 µg/mL); MIC50 (Staphylococcus aureus [24]): 20 µg/mL (≈ 44 µM); MIC90 (Staphylococcus aureus [24]): 100 µg/mL (≈ 220 µM); MIC (Escherichia coli [25]): ≥ 40 µg/mL; MIC (Escherichia coli [26]): 1000 µM (≈ 454 µg/mL) |
| CCc1nc(N)nc(N)c1C#C[C@@H](C)c1cc(OC)cc(-c2ccc(C(=O)O)cc2)c1 | 10 (≈ 24 µM) | 0.0098 (≈ 0.0235 µM) | Active | Active | Active | Active | Non-toxic | 0.0024 (≈ 0.00576 µM) | > 100 | Active | Non-toxic | – | – |
| CC(=O)O.CCc1nc(N)nc(N)c1C#C[C@H](C)c1cc(-c2ccc(C(=O)O)cc2)ccc1OC | > 20 | 0.625 | Active | – | Active | Active | Non-toxic | 0.0391 | > 100 | Active | Non-toxic | – | – |
| CCc1nc(N)nc(N)c1C#CCc1cc(-c2ccccc2C(=O)O)ccc1OC | > 32 | > 20 | Active | – | Active | Active | Non-toxic | 20 (≈ 49.7 µM) | – | Active | Non-toxic | 2000 | – |
| CCc1nc(N)nc(N)c1C#CCc1cc(-c2cccc(C(=O)O)c2)ccc1OC.O=C(O)C(F)(F)F | > 20 | 0.625 | Active | – | Active | Active | Non-toxic | 0.0391 | – | Active | Non-toxic | 2000 | – |
| CCc1nc(N)nc(N)c1C#CCc1cc(OC)cc(-c2ccc(C(=O)O)cc2)c1.O=C(O)C(F)(F)F | > 20 | 0.0195 | Active | Active | Active | Active | Non-toxic | 0.0049 | > 100 | Active | Non-toxic | – | – |

Source: ChEMBL document CHEMBL3826924, “Charged Nonclassical Antifolates with Activity Against Gram-Positive and Gram-Negative Pathogens” (ACS Med Chem Lett, 2016)
